# Experimental data from patent publication US4175081A, “5-Substituted thiadiazole ureas” (priority 1977, dated 1979).
# Columns and labels:
# [1] = system: Turnip (TP); test: Post-emergence herbicide test; assay type: in vivo, Brassica sp.; conditions: Brassica rapa, post-emergence, 336 h, two weeks after treatment; for pest or weed control at 2241.7 g/ha: 2 lb/acre; for pest or weed control at 4483.4 g/ha: 4 lb/acre
# Procedure, shortened: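 A greenhouse post-emergence herbicide test on turnip. Seeds were sown on the surface of potting soil in 3' plastic pots, lightly covered with screened soil and watered from below. Planting was timed so seedlings had 1 or 2 true leaves above the cotyledons at spraying, done in a hood with a fixed nozzle. Control or injury was scored by eye after two weeks.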
# [2] = system: Corn (CN); test: Post-emergence herbicide test; assay type: in vivo; conditions: Zea mays, 336 h, two weeks after treatment
# Procedure, shortened: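 Greenhouse seedlings grown in potting soil and sprayed post-emergence at 8 lbs compound/acre (formulations also made for 4 lbs/acre) in 38 gallons/acre spray volume. Watering by sub-irrigation only. Injury or control rated visually two weeks after treatment.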
# [3] = system: Crabgrass (CG); test: Post-emergence herbicide test; assay type: in vivo, Digitaria sanquinalis; conditions: Digitaria sanguinalis, post-emergence, 336 h, two weeks after treatment; for pest or weed control: 2 lb/acre; for pest or weed control at 4483.4 g/ha: 4 lb/acre
# Procedure, shortened: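 Crabgrass (Digitaria sanquinalis) was surface seeded individually in 3' plastic pots of potting soil, covered with screened soil, and watered by sub-irrigation in greenhouse trays. Planting was staggered so seedlings reached the target stage together. Post-emergence sprays were applied in a hood with a removable belt and fixed nozzle, and control was visually rated two weeks after treatment.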
# [4] = system: Barnyard grass (BG); test: Post-emergence herbicide test; assay type: in vivo; conditions: Echinochloa crus-galli, 336 h, two weeks after treatment
# Procedure, shortened: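 Greenhouse pot-grown barnyard grass seedlings sprayed post-emergence at 8 lbs active compound per acre (some at 4 lbs/acre) in 38 gallons per acre, then sub-irrigated. Injury or control rated visually two weeks after treatment.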
# [5] = system: Cotton (CT); test: Post-emergence herbicide test; assay type: in vivo, Gossypium hirsutum var. DPL smooth leaf; conditions: Gossypium hirsutum, post-emergence, 336 h, two weeks after treatment; for pest or weed control at 2241.7 g/ha: 2 lb/acre; for pest or weed control at 4483.4 g/ha: 4 lb/acre
# Procedure, shortened: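 Cotton (Gossypium hirsutum var. DPL smooth leaf) was grown in 3' plastic pots of potting soil, four seeds per pot, planted at a depth equal to the seed diameter and watered by sub-irrigation. At the stage of expanded cotyledons with the first true leaf 1' long, plants were sprayed post-emergence in a hood with a fixed nozzle over a moving belt. Percent control was rated visually two weeks later.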
# [6] = system: Bean (BN); test: Post-emergence herbicide test; assay type: in vivo, Phaseolus vulgaris var. Black Valentine; conditions: Phaseolus vulgaris, post-emergence, 336 h, two weeks after treatment; for pest or weed control at 2241.7 g/ha: 2 lb/acre; for pest or weed control at 4483.4 g/ha: 4 lb/acre
# Procedure, shortened: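 Snapbean (Phaseolus vulgaris var. Black Valentine) was tested post-emergence. Four seeds were sown in 3' plastic pots of potting soil at a depth equal to the seed diameter, then sub-irrigated in greenhouse trays. Planting dates were staggered so plants were sprayed once primary leaves had expanded, with the growing point at the primary leaf nodes.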
# [7] = system: Amaranth pigweed (PW); test: Post-emergence herbicide test; assay type: in vivo, Amaranthus retroflexus; conditions: 336 h, two weeks after treatment
# Experimental: Amaranth pigweed (PW)--Amaranthus retroflexus
# (§1) All crop and weed species were planted individually in 3' plastic pots containing potting soil. Four seeds each of corn, cotton, and snapbeans were seeded to a depth equal to the diameter of the seed. All other species were surface seeded and sprinkled with screened soil in an amount sufficient to cover the seed. Immediately after planting, all pots were watered by sub-irrigation in greenhouse trays. Pots for the pre-emergence phase were seeded one day before treatment.
# Planting dates for the post-emergence phase were varied so that all seedlings would reach the desired stage of development simultaneously. The proper stage of seedling development for treatment in the post-emergence phase is as follows:
# Pigweed and turnips: 1 or 2 true leaves above visible cotyledons.
# (§2) Compounds were tested at rates of application equivalent to 8 lbs. of actual compound per acre in a spray volume of 38 gallons per acre. Spray hood constants required to deliver the above volume are as follows:
# (§3) Formulations for spray applications were prepared in 50 ml volumes with the following three components:
# (§4) Formulations for the 4 lbs/acre rate were prepared by adjusting the amount of active ingredient accordingly.
# (§5) Spray applications were made in a hood containing a removable belt and fixed spray nozzle. For passage through the spray hood, one pot of each specie (pre-emergence phase) was placed on the rear half of the flat. Treatments were removed to the greenhouse after spraying. Watering during the observation period was done only by sub-irrigation.
# (§6) Two weeks after treatment, pre- and post-emergence injury or control was visually rated, and the results were as shown in the following tables. Pre-emergence data are provided in TABLE III and post-emergence data are provided in TABLE IV, for compounds having the formula illustrated in TABLE I. Correspondingly, pre-emergence and post-emergence data, respectively, are set forth in TABLES V AND VI, for compounds having the formula illustrated in TABLE II.
# [8] = system: Johnson grass (JG); test: Post-emergence herbicide test; assay type: in vivo, Sorgum helepense; conditions: Sorghum halepense, 336 h, two weeks after treatment
# Procedure, shortened: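 Greenhouse pot-grown seedlings sprayed post-emergence at 8 lbs compound per acre (some at 4 lbs/acre) in 38 gallons per acre spray volume. Sub-irrigated thereafter. Injury/control rated visually two weeks after treatment.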
# [9] = system: Barnyard grass (BG); test: Pre-emergence herbicide test; assay type: in vivo; conditions: Echinochloa crus-galli, 336 h, two weeks after treatment; for pest or weed control at 4483.4 g/ha: 4 lb/acre
# Procedure, shortened: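 Barnyard grass surface-seeded in potting soil and sprayed pre-emergence one day after seeding, at 8 or 4 lb compound/acre in 38 gal/acre spray volume. Pots kept in greenhouse with sub-irrigation only; injury or control rated visually two weeks after treatment.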
# [10] = system: Amaranth pigweed (PW); test: Pre-emergence herbicide test; assay type: in vivo, Amaranthus retroflexus; conditions: 336 h, two weeks after treatment; for pest or weed control at 4483.4 g/ha: 4 lb/acre
# Experimental: as §1, §2, §3, §4, §5, §6
# [11] = system: Cotton (CT); test: Pre-emergence herbicide test; assay type: in vivo, Gossypium hirsutum var. DPL smooth leaf; conditions: Gossypium hirsutum, 336 h, two weeks after treatment; for pest or weed control at 4483.4 g/ha: 4 lb/acre
# Procedure, shortened: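 Crop and weed species seeded one day before treatment, then sprayed pre-emergence at 8 lbs actual compound per acre (also 4 lbs/acre formulations) in 38 gallons per acre. Pots kept in greenhouse with sub-irrigation only; injury or control visually rated two weeks after treatment.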
# [12] = system: Johnson grass (JG); test: Pre-emergence herbicide test; assay type: in vivo, Sorgum helepense; conditions: Sorghum halepense, 336 h, two weeks after treatment; for pest or weed control at 4483.4 g/ha: 4 lb/acre
# Procedure, shortened: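 Pots seeded one day before spraying; compound applied pre-emergence at 8 lbs/acre (or 4 lbs/acre) in 38 gallons/acre spray volume. Sub-irrigated in greenhouse; injury/control rated visually two weeks after treatment.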
# [13] = system: Corn (CN); test: Pre-emergence herbicide test; assay type: in vivo; conditions: Zea mays, 336 h, two weeks after treatment; for pest or weed control at 4483.4 g/ha: 4 lb/acre
# Procedure, shortened: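 Four corn seeds per pot, sown at seed-diameter depth one day before spraying, got soil surface treatment at 8 lbs/acre (4 lbs/acre formulations also prepared) in 38 gallons/acre. Pots were greenhouse-held with sub-irrigation only. Injury or control was scored visually two weeks after treatment.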
# [14] = system: Turnip (TP); test: Pre-emergence herbicide test; assay type: in vivo, Brassica sp.; conditions: Brassica rapa, pre-emergence, 336 h, two weeks after treatment; for pest or weed control at 4483.4 g/ha: 4 lb/acre
# Procedure, shortened: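 Turnip (Brassica sp.) seeds were surface sown in 3' plastic pots of potting soil, covered with a thin layer of screened soil, and sub-irrigated in greenhouse trays. Pots were seeded one day ahead of treatment, sprayed pre-emergence under a hood with a fixed nozzle and moving belt, then kept in the greenhouse.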
# [15] = system: Crabgrass (CG); test: Pre-emergence herbicide test; assay type: in vivo, Digitaria sanquinalis; conditions: Digitaria sanguinalis, pre-emergence, 336 h, two weeks after treatment; for pest or weed control at 4483.4 g/ha: 4 lb/acre
# Procedure, shortened: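 Crabgrass (Digitaria sanquinalis) was surface seeded in 3' plastic pots of potting soil, covered with screened soil, and watered by sub-irrigation in greenhouse trays. Pots were seeded one day before spraying in a hood with a moving belt and fixed nozzle. Plants stayed in the greenhouse on sub-irrigation, and pre-emergence control was rated visually two weeks after treatment.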
# [16] = system: Bean (BN); test: Pre-emergence herbicide test; assay type: in vivo, Phaseolus vulgaris var. Black Valentine; conditions: Phaseolus vulgaris, 336 h, two weeks after treatment
# Procedure, shortened: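 Black Valentine bean was seeded in potting soil one day before spraying. Compound was applied pre-emergence at 8 lbs/acre (also 4 lbs/acre) in 38 gallons per acre. Plants were sub-irrigated and injury or control was rated visually after two weeks.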
smiles,measurement,setting,value
CNC(=O)Nc1nnc(SCCCCl)s1 [Example 61],pest or weed control at 2241.7 g/ha,[1],100%
same,pest or weed control at 4483.4 g/ha,[1],80%
same,pest or weed control,[2]; 2 lb/acre,40%
same,pest or weed control at 4483.4 g/ha,[2]; 4 lb/acre,30%
same,pest or weed control,[3],20%
same,pest or weed control at 4483.4 g/ha,[3],90%
same,pest or weed control at 2241.7 g/ha,[4]; 2 lb/acre,40%
same,pest or weed control at 4483.4 g/ha,[4]; 4 lb/acre,70%
same,pest or weed control at 2241.7 g/ha,[5],100%
same,pest or weed control at 4483.4 g/ha,[5],100%
same,pest or weed control at 2241.7 g/ha,[6],100%
same,pest or weed control at 4483.4 g/ha,[6],100%
same,pest or weed control at 2241.7 g/ha,[7]; 2 lb/acre,90%
same,pest or weed control at 4483.4 g/ha,[7]; 4 lb/acre,90%
same,pest or weed control,[8]; 2 lb/acre,20%
same,pest or weed control at 4483.4 g/ha,[8]; 4 lb/acre,60%
CCCC(C)c1nnc(NC(=O)NC)s1 (stereo not drawn) [Example 83],pest or weed control at 4483.4 g/ha,[9],50%
same,pest or weed control at 4483.4 g/ha,[10],80%
same,pest or weed control at 4483.4 g/ha,[1],90%
same,pest or weed control at 4483.4 g/ha,[11],10%
same,pest or weed control at 4483.4 g/ha,[12],60%
same,pest or weed control at 4483.4 g/ha,[13],10%
same,pest or weed control at 4483.4 g/ha,[14],10%
same,pest or weed control at 4483.4 g/ha,[15],90%
same,pest or weed control at 4483.4 g/ha,[3],10%
same,pest or weed control at 4483.4 g/ha,[5],10%
same,pest or weed control at 4483.4 g/ha,[6],40%
CCSc1nnc(N(C)C(=O)NC)s1 [Example 89],pest or weed control at 560.425 g/ha,[9]; 0.5 lb/acre,30%
same,pest or weed control at 1120.85 g/ha,[9]; 1 lb/acre,80%
same,pest or weed control at 2241.7 g/ha,[9]; 2 lb/acre,80%
same,pest or weed control at 4483.4 g/ha,[9],100%
same,pest or weed control at 560.425 g/ha,[10]; 0.5 lb/acre,70%
same,pest or weed control at 1120.85 g/ha,[10]; 1 lb/acre,100%
same,pest or weed control at 2241.7 g/ha,[10]; 2 lb/acre,100%
same,pest or weed control at 4483.4 g/ha,[10],100%
same,pest or weed control at 560.425 g/ha,[1]; 0.5 lb/acre,100%
same,pest or weed control at 1120.85 g/ha,[1]; 1 lb/acre,100%
same,pest or weed control at 2241.7 g/ha,[1],100%
same,pest or weed control at 4483.4 g/ha,[1],100%
same,pest or weed control at 560.425 g/ha,[11]; 0.5 lb/acre,10%
same,pest or weed control at 1120.85 g/ha,[11]; 1 lb/acre,10%
same,pest or weed control at 2241.7 g/ha,[11]; 2 lb/acre,10%
same,pest or weed control at 4483.4 g/ha,[11],50%
same,pest or weed control at 560.425 g/ha,[12]; 0.5 lb/acre,40%
same,pest or weed control at 1120.85 g/ha,[12]; 1 lb/acre,50%
same,pest or weed control at 2241.7 g/ha,[12]; 2 lb/acre,80%
same,pest or weed control at 4483.4 g/ha,[12],70%
same,pest or weed control at 560.425 g/ha,[13]; 0.5 lb/acre,10%
same,pest or weed control at 1120.85 g/ha,[13]; 1 lb/acre,50%
same,pest or weed control at 2241.7 g/ha,[13]; 2 lb/acre,40%
same,pest or weed control at 4483.4 g/ha,[13],50%
same,pest or weed control at 560.425 g/ha,[14]; 0.5 lb/acre,30%
same,pest or weed control at 1120.85 g/ha,[14]; 1 lb/acre,70%
same,pest or weed control at 2241.7 g/ha,[14]; 2 lb/acre,80%
same,pest or weed control at 4483.4 g/ha,[14],90%
same,pest or weed control at 560.425 g/ha,[15]; 0.5 lb/acre,50%
same,pest or weed control at 1120.85 g/ha,[15]; 1 lb/acre,90%
same,pest or weed control at 2241.7 g/ha,[15]; 2 lb/acre,90%
same,pest or weed control at 4483.4 g/ha,[15],100%
same,pest or weed control at 560.425 g/ha,[3]; 0.5 lb/acre,40%
same,pest or weed control at 1120.85 g/ha,[3]; 1 lb/acre,50%
same,pest or weed control,[3],90%
same,pest or weed control at 4483.4 g/ha,[3],90%
same,pest or weed control at 560.425 g/ha,[5]; 0.5 lb/acre,90%
same,pest or weed control at 1120.85 g/ha,[5]; 1 lb/acre,100%
same,pest or weed control at 2241.7 g/ha,[5],100%
same,pest or weed control at 4483.4 g/ha,[5],100%
same,pest or weed control at 560.425 g/ha,[16]; 0.5 lb/acre,10%
same,pest or weed control at 1120.85 g/ha,[16]; 1 lb/acre,10%
same,pest or weed control at 2241.7 g/ha,[16]; 2 lb/acre,10%
same,pest or weed control at 4483.4 g/ha,[16]; 4 lb/acre,10%
same,pest or weed control at 560.425 g/ha,[6]; 0.5 lb/acre,90%
same,pest or weed control at 1120.85 g/ha,[6]; 1 lb/acre,100%
same,pest or weed control at 2241.7 g/ha,[6],100%
same,pest or weed control at 4483.4 g/ha,[6],100%
